pEC50: −log10 of the molar value.
Columns and labels:
human CYP11B1 = human CYP11B1 (Homo sapiens (Human), UniProt P15538); experiment: G-402 cellular enzyme assay, human CYP11B1 (cortisol release); type: cell-based; settings: G-402 cells, 1 μM Deoxycortisol
Source text: (§1) Herein we identified the use of the G-402 cell line as a host cell to ectopically express (transiently or stably) enzymes of the CYP11 family. Specifically we developed stable G-402 cells expressing ectopically human CYP11B1, human CYP11B2, human CYP11A1, cynmolgus CYP11B1 or cynomolgus CYP11B2 enzyme activity. Importantly the identified cell line G-402 expresses co-factors (adrenodoxin and adrenodoxin reductase) important for the activity of the CYP11 family and no relevant enzyme activity of the CYP11 family (in comparison to H295R cells) was detected in these cells. Therefore the G-402 cell line is uniquely suited as a host cell for the ectopic expression of enzymes from the CYP11 family.
(§2) G-402 cells can be obtained from ATCC (CRL-1440) and were originally derived from a renal leiomyoblastoma.
(§3) The expression plasmids contains the ORF for either human/cyno CYP11B1 or CYP11B2 under the control of a suitable promoter (CMV-promoter) and a suitable resistance marker (neomycin). Using standard techniques the expression plasmid is transfected into G-402 cells and these cells are then selected for expressing the given resistance markers. Individual cell-clones are then selected and assessed for displaying the desired enzymatic activity using 11-Deoxycorticosterone (Cyp11B2) or 11-Deoxycortisol (Cyp11B1) as a substrate.
(§4) G-402 cells expressing CYP11 constructs were established as described above and maintained in McCoy's 5a Medium Modified, ATCC Catalog No. 30-2007 containing 10% FCS and 400 μg/ml G418 (Geneticin) at 37° C. under an atmosphere of 5% CO2/95% air. Cellular enzyme assays were performed in DMEM/F12 medium containing 2.5% charcoal treated FCS and appropriate concentration of substrate (0.3-10 uM 11-Deoxycorticosterone, 11-Deoxycortisol or Corticosterone). For assaying enzymatic activity, cells were plated onto 96 well plates and incubated for 16 h. An aliquot of the supernatant is then transferred and analyzed for the concentration of the expected product (Aldosterone for CYP11B2; Cortisol for CYP11B1). The concentrations of these steroids can be determined using HTRF assays from CisBio analyzing either Aldosterone or Cortisol.
(§5) Inhibition of the release of produced steroids can be used as a measure of the respective enzyme inhibition by test compounds added during the cellular enzyme assay. The dose dependent inhibition of enzymatic activity by a compound is calculated by means of plotting added inhibitor concentrations (x-axes) vs. measured steroid/product level (y-axes). The inhibition is then calculated by fitting the following 4-parameter sigmoidal function (Morgan-Mercer-Flodin (MMF) model) to the raw data points using the least squares method:
(§6) [formula] wherein, A is the maximum y value, B is the EC50 factor determined using XLFit, C is the minimum y value and D is the slope value.
(§7) EC50 values for compounds claimed herein were tested with the G402-based assay system described. Cyp11B2 enzyme activity was tested in presence of 1 μM Deoxycorticosterone and variable amounts of inhibitors; Cyp11B1 enzyme activity was tested in presence of 1 μM Deoxycortisol and variable amounts of inhibitors.

CYP11B2 = CYP11B2 (Homo sapiens (Human), UniProt P19099); experiment: G-402 cellular enzyme assay, human CYP11B2 (aldosterone release); type: cell-based; settings: G-402 cells, 1 μM Deoxycorticosterone
Source text: as §1, §2, §3, §4, §5, §6, §7

CYP11B2, sequence (P19099 25-503): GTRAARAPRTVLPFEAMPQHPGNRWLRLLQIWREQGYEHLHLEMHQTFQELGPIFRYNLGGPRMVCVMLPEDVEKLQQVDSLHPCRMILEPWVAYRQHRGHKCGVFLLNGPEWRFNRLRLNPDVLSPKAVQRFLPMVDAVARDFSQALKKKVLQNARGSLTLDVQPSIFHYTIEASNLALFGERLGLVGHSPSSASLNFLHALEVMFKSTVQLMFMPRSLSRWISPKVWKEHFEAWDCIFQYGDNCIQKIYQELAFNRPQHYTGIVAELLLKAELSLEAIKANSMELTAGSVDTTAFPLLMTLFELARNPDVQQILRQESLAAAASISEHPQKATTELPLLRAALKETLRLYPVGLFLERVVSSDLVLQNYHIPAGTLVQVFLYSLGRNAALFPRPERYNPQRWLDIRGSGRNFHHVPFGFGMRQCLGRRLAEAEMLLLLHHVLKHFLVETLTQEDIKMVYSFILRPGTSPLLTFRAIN
human CYP11B1, sequence (P15538 25-503): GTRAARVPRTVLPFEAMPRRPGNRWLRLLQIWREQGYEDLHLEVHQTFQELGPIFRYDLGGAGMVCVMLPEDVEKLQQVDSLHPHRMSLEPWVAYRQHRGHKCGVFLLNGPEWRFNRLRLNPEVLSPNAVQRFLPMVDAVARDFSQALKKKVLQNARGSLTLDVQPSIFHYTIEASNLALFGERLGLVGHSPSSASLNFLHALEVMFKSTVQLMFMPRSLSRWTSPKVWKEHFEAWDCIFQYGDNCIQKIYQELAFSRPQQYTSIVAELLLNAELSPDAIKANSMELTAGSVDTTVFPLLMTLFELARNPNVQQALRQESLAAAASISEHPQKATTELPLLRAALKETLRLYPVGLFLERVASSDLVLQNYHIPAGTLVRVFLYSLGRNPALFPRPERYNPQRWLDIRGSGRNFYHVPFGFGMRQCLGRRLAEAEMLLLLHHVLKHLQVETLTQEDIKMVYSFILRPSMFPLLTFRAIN

## CC1(C)c2cc(Cl)ccc2C(=O)N1c1cncc(NC2CN(S(C)(=O)=O)C2)c1 [Example 8, 5-Chloro-3,3-dimethyl-2-[5-[(1-methylsulfonylazetidin-3-yl)amino]pyridin-3-yl]isoindol-1-one]
Human CYP11B1
  pEC50: 5.55
CYP11B2
  pEC50: 7.77

## CCS(=O)(=O)N1CC(Nc2cncc(N3C(=O)c4ccc(Cl)cc4C3C)c2)C1 (centres unmarked) [Example 34, 5-Chloro-2-[5-[(1-ethylsulfonylazetidin-3-yl)amino]pyridin-3-yl]-3-methyl-3H-isoindol-1-one]
Human CYP11B1
  pEC50: 5.34
CYP11B2
  pEC50: 7.15

## CC(C)S(=O)(=O)N1CCCC(Nc2cncc(N3C(=O)c4ccc(Cl)cc4C3(C)C)c2)C1 (single isomer, unassigned) [Example 27, 5-Chloro-3,3-dimethyl-2-[5-[[(3S or 3R)-1-propan-2-ylsulfonylpiperidin-3-yl]amino]pyridin-3-yl]isoindol-1-one]
Human CYP11B1
  pEC50: < 4.52
CYP11B2
  pEC50: 5.82

## CC(C)S(=O)(=O)N1CCC(N(C)c2cncc(N3C(=O)c4ccc(Cl)cc4C3(C)C)c2)C1 (single isomer, unassigned) [Example 16, 5-Chloro-3,3-dimethyl-2-[5-[methyl-[(3R or 3S)-1-propan-2-ylsulfonylpyrrolidin-3-yl]amino]pyridin-3-yl]isoindol-1-one]
Human CYP11B1
  pEC50: 6.93
CYP11B2
  pEC50: 9.30

## CCC(=O)N1CC(Nc2cncc(N3C(=O)c4ccc(Cl)cc4C3C)c2)C1 (centres unmarked) [Example 33, 5-Chloro-3-methyl-2-[5-[(1-propanoylazetidin-3-yl)amino]pyridin-3-yl]-3H-isoindol-1-one]
Human CYP11B1
  pEC50: < 4.52
CYP11B2
  pEC50: 7.19

## CC(=O)N1CCC(Nc2cncc(N3C(=O)c4ccc(Cl)cc4C3(C)C)c2)CC1 [Example 5, 2-[5-[(1-Acetylpiperidin-4-yl)amino]pyridin-3-yl]-5-chloro-3,3-dimethylisoindol-1-one]
Human CYP11B1
  pEC50: 5.61
CYP11B2
  pEC50: 7.51

## CN(c1cncc(N2C(=O)c3ccc(Cl)cc3C2(C)C)c1)C1CN(S(C)(=O)=O)C1 [Example 11, 5-Chloro-3,3-dimethyl-2-[5-[methyl-(1-methylsulfonylazetidin-3-yl)amino]pyridin-3-yl]isoindol-1-one]
Human CYP11B1
  pEC50: 7.30
CYP11B2
  pEC50: 8.52

## CCS(=O)(=O)N1CC(Nc2cncc(N3C(=O)c4ccc(Cl)cc4C3(C)C)c2)C1 [Example 7, 5-Chloro-2-[5-[(1-ethylsulfonylazetidin-3-yl)amino]pyridin-3-yl]-3,3-dimethylisoindol-1-one]
Human CYP11B1
  pEC50: 5.78
CYP11B2
  pEC50: 8.10

## CC(=O)N1CC(N(C)c2cncc(N3C(=O)c4ccc(Cl)cc4C3(C)C)c2)C1 [Example 2, 2-[5-[(1-Acetylazetidin-3-yl)-methylamino]pyridin-3-yl]-5-chloro-3,3-dimethylisoindol-1-one]
Human CYP11B1
  pEC50: 6.26
CYP11B2
  pEC50: 7.92

## CCS(=O)(=O)N1CC2(CC(Nc3cncc(N4C(=O)c5ccc(Cl)cc5C4(C)C)c3)C2)C1 [Example 37, 5-Chloro-2-[5-[(2-ethylsulfonyl-2-azaspiro[3.3]heptan-6-yl)amino]pyridin-3-yl]-3,3-dimethylisoindol-1-one]
Human CYP11B1
  pEC50: 5.13
CYP11B2
  pEC50: 8.00

## CCC(=O)N1CC(Nc2cncc(N3CCc4cc(Cl)ccc4C3=O)c2)C1 [Example 29, 6-Chloro-2-[5-[(1-propanoylazetidin-3-yl)amino]pyridin-3-yl]-3,4-dihydroisoquinolin-1-one]
Human CYP11B1
  pEC50: 4.62
CYP11B2
  pEC50: 6.75

## CCC(=O)N1CC(Nc2cncc(N3C(=O)c4ccc(Cl)cc4[C@@H]3C)c2)C1 (single isomer, unassigned) [Example 40, (3S or 3R)-5-Chloro-3-methyl-2-[5-[(1-propanoylazetidin-3-yl)amino]-3-pyridyl]isoindolin-1-one]
Human CYP11B1
  pEC50: 5.38
CYP11B2
  pEC50: 6.81

## CCS(=O)(=O)N1CC(N(C)c2cncc(N3C(=O)c4ccc(Cl)cc4C3(C)C)c2)C1 [Example 10, 5-Chloro-2-[5-[(1-ethylsulfonylazetidin-3-yl)-methylamino]pyridin-3-yl]-3,3-dimethylisoindol-1-one]
Human CYP11B1
  pEC50: 7.41
CYP11B2
  pEC50: 9.30
